Where “and” joins values, the source holds several entries; their conditions need not be identical. Equal values may be shown once. Entries after “also recorded” stand apart in the source; their conditions may differ. Read-outs that look alike come from different tables or passages of the source.
Assays:
MtFBPaseII = target: T1, MtFBPaseII (Mycobacterium tuberculosis, UniProt P9WN21); experiment: FBPase activity of wild-type MtFBPaseII, malachite green assay; format: biochemical; settings: for IC50: wild-type MtFBPaseII, malachite green assay, fit of triplicate data, standard error reported; for Effect on MtFBPaseII activity (in words): TCA cycle intermediates tested for inhibitory activity
T1 construct: His-tag (N); made in house
T1 sequence (P9WN21 whole entry): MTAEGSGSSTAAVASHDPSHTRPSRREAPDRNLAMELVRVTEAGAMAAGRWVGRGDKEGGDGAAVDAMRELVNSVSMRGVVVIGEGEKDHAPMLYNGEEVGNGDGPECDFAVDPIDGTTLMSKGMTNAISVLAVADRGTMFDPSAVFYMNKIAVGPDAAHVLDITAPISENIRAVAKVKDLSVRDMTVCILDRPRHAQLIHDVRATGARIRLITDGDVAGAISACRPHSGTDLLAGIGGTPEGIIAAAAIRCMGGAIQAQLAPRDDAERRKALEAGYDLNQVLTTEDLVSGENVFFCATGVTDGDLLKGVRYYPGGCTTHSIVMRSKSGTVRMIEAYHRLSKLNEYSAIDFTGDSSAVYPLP
Procedure: The FBPase activity of wild-type MtFBPaseII was measured using the malachite green assay (Bondoc et al., 2017[▸]) in the presence of α-ketoglutarate, citrate, isocitrate, malate, malonate and oxaloacetate. Compounds were tested in triplicate at concentrations of 5000, 3000, 2500, 1300, 630, 310 and 160 µM with positive (no compound) and negative (no enzyme) controls in parallel. Fitting was performed with GraphPad Prism (v.7.0b; GraphPad Software, La Jolla, California, USA). The coupled assay (Bondoc et al., 2017[▸]) was used to obtain kinetic data, which were fitted to a nonlinear Michaelis–Menten equation.

EcFBPaseI = tested on: EcFBPaseI; design: method as in Hines et al., 2007; settings: in the presence of 5 µM AMP, ref Hines et al., 2007; cited from earlier work
[1] = IC50 values of compounds against MtFBPaseII
[2] = read-out: IC50 values of compounds against MtFBPaseII

## O=C(O)CC(O)(CC(=O)O)C(=O)O [Citrate]
MtFBPaseII; [1]
  IC50: ~2 mM and 2 mM
EcFBPaseI
  Concentration range resulting in activation of the enzyme: 0.5 to 5 mM

## O=C(O)CC(C(=O)O)C(O)C(=O)O (centres unmarked) [Isocitrate]
MtFBPaseII
  Effect on MtFBPaseII activity (in words): no effect
MtFBPaseII; up to a concentration of 5 mM
  Inhibition of MtFBPaseII: did not inhibit; also recorded: did not have any measureable activity

## O=C(O)CC(O)C(=O)O (centres unmarked) [Malate, malate]
MtFBPaseII; [1]
  IC50: 3.3 ± 0.1 mM

## O=C(O)CC(=O)O [Malonate, malonate]
MtFBPaseII; MtFBPaseII, Fig. 4
  Concentration with a weak effect on the activity of the enzyme: 3 to 4 mM
MtFBPaseII; [2]
  IC50: 3.2 ± 0.1 mM

## O=C(O)CC(=O)C(=O)O [Oxaloacetate]
MtFBPaseII; [1]
  IC50: 6.4 ± 0.5 mM
MtFBPaseII
  Effect on MtFBPaseII activity (in words): limited effect

## C=C(OP(=O)(O)O)C(=O)O [PEP, phosphoenolpyruvate]
EcFBPaseI
  Concentration range resulting in activation of the enzyme: 0.5 to 5 mM

## O=C(O)CCC(=O)C(=O)O [α-Ketoglutarate, α-ketoglutarate]
MtFBPaseII; [2]
  IC50: 3.1 ± 0.2 mM
